Assay results as given in article doi:10.1101/2024.12.09.627564, “Cannabinoid inhibition of mechanosensitive K^+ channels” (bioRxiv, 2024).
Residue numbers refer to the chain shown, from its start.

How the values were obtained:
TRAAKA270P = molecular target: T1, TRAAKA270P (Homo sapiens, UniProt Q9NYG8, A244P); test: Excised patch recording of TRAAK mutant A270P; assay type: biochemical
T1 construct: The transcribed messages encode H. sapiens TRAAK amino acids 1–393; expressed in transfected cells; host or cells: Xenopus laevis oocytes, cRNA injection
T1 sequence (Q9NYG8 1-393 A244P): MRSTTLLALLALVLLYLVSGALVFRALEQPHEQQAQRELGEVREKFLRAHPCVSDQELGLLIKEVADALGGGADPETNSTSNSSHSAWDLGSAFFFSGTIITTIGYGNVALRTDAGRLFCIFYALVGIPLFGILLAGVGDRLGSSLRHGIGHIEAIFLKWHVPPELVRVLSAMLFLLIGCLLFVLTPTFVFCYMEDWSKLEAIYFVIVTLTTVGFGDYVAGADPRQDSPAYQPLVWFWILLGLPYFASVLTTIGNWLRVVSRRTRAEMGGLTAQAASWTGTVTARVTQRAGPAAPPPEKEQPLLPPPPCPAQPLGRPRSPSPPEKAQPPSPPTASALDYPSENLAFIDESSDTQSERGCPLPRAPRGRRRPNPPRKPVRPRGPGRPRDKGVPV
Excerpt: (§1) For patch clamp recording from Xenopus oocytes, genes encoding full-length Homo sapiens TRAAK (UniProt Q9NYG8–2), TREK-1 (UniProt O95069), and TREK-2 (UniProt P57789) were codon optimized for eukaryotic expression, synthesized (Genewiz), and cloned into a modified pGEMHE vector using Xho1 and EcoR1 restriction sites. The transcribed messages encode H. sapiens TRAAK amino acids 1–393, TREK-1 amino acids 1–426, or TREK-2 amino acids 1–538 with an additional three amino acids (SNS) at the C terminus. TRAAK mutants were introduced by polymerase chain reaction (PCR). Linearized DNA was transcribed in vitro using T7 polymerase. Complementary RNA (0.1 to 10 ng for TRAAK, TREK-1, TREK-2, and mutants) in 50 nL H2O was injected into Xenopus laevis oocytes extracted from anesthetized frogs. Currents were recorded at 25 °C from inside-out patches excised from oocytes 1 to 5 d after RNA injection. […]
(§2) Patches were evaluated with voltage-step protocols to confirm TRAAK expression and minimal non-specific leak based on reversal potential. Currents were recorded using an Axopatch 200B amplifier (Molecular Devices) at a bandwidth of 1 kHz and digitized with an Digidata 1550B (Molecular Devices) at 100–500 kHz using pClamp10.7 software. […] In an effort to minimize variability associated with differences in resting membrane tension, we targeted patches with low basal curvature and low resting channel activity and ensured measured pressure difference across the patch was as close to zero as possible at rest to prevent mechanical activation of channels. Data were analyzed using Clampfit 10.7, Excel, and Graphpad Prism software. […]
To avoid cannabinoid absorption to plastic, cannabinoid solutions were made in glass vials and diluted by weight, perfusion was performed using glass tubing pulled from borosilicate glass Pasteur pipettes (Fisherbrand, Cat# 13–678-20C), and recordings were performed in glass chambers. Channel activity was continuously recorded during perfusion steps. […]

TRAAKG165E = molecular target: T2, TRAAKG165E (Homo sapiens, UniProt Q9NYG8, G139E); test: Excised patch recording of TRAAK mutant G165E; assay type: biochemical
T2 construct: The transcribed messages encode H. sapiens TRAAK amino acids 1–393; expressed in transfected cells; host or cells: Xenopus laevis oocytes, cRNA injection
T2 sequence (Q9NYG8 1-393 G139E): T1 sequence (Q9NYG8 1-393 A244P) with G139E, P244A
Excerpt: as §1, with “Complementary RNA (0.1 to 10 ng for TRAAK, TREK-1, TREK-2, and mutants) in 50 nL H2O was injected into Xenopus laevis oocytes extracted from anesthetized frogs.” left out
as §2, with “channels.” for “channels. Data were analyzed using Clampfit 10.7, Excel, and Graphpad Prism software.”

TRPA1 = system: TRPA1; parameters: method as in PMID 30697147, PMID 31566564; settings: activation; cited from earlier work

## C=C(C)[C@@H]1CCC(C)=C[C@H]1c1c(O)cc(CCCCC)cc1O [CBD, Cannabidiol]
TRAAKA270P
  IC50: 1.12 ± 0.04 µM
TRAAKA270P; 10 μM CBD
  inhibition of channel activity at high concentration: fully inhibited
TRAAKA270P; A270P vs wild-type
  fold less sensitive than wild-type TRAAK: ~ 8 fold
TRAAKG165E
  IC50: 0.162 ± 0.008 µM
TRPA1
  EC50: 0.11 µM
